Where two headings read alike, the source gives them in different places.
Experiments:
[1] = Stability tests in cyclic voltammetry; assay type: physicochemical; settings: 1×10^−3 M, 0.1 M TBABF4 in acetonitrile
Description: Stability tests were carried out using the same electrochemical cell as in Example 9.
For the purpose, use was made of solutions containing: • 4,7-di[2-(propyloxycarbonylethyloxy)phenyl]-benzothiadiazole [Compound (2) obtained in Example 2 or 7] (1×10^−3 M) and tetrabutylammonium tetrafluoroborate (TBABF4) (Aldrich) 0.1 M in acetonitrile (Aldrich) (non-aqueous liquid negative electrolyte of the negative compartment).

[2] = Cyclic voltammetry measurements (oxidation-reduction potentials); assay type: physicochemical; settings: for E°′ ACN (V vs Fc/Fc^+): acetonitrile; for E°′ ACN (V vs Fc/Fc^+) / E°′ PC (V vs Fc/Fc^+): 0.1 M TBABF4, glassy carbon working electrode, 25° C., normalised to Fc/Fc^+; for E°′ PC (V vs Fc/Fc^+): propylene carbonate
Description: Cyclic voltammetry measurements were carried out in a hemi-cell with a three-electrode configuration, with glassy carbon working electrode, platinum counter electrode and silver/silver chloride (Ag/AgCl) reference electrode. The oxidation-reduction potentials E°′Ox/Red were derived from the position of the forward peak (Epf) and the return peak (Epr):
and the values were normalised with respect to the intersolvent ferrocene/ferrocenium (Fc/Fc^+) couple.
Evaluations were carried out on an Autolab PGSTAT 128N analytical instrument at scan rates of 10, 20, 50, 70, 100, and 200 mV/s. All evaluations were carried out in triplicate at room temperature (25° C.). For the purpose, use was made of solutions containing: • benzothiadiazole (1) (Aldrich) (5×10^−3 M) and tetrabutylammonium tetrafluoro-borate (TBABF4) (Aldrich) (0.1 M) in acetonitrile (Aldrich) (non-aqueous liquid negative electrolyte of the negative compartment) (BTD); • benzothiadiazole (1) (Aldrich) (5×10^−3 M) and tetrabutylammonium tetrafluoro-borate (TBABF4) (Aldrich) (0.1 M) in propylene carbonate (Aldrich) (non-aqueous liquid negative electrolyte of the negative compartment) (BTD); • 4,7-di[2-(propyloxycarbonylethyloxy)phenyl]-benzothiadiazole [compound (2) obtained in Example 7] (5×10^−3 M) and tetrabutylammonium tetrafluoroborate (TBABF4) (Aldrich) (0.1 M) in acetonitrile (Aldrich) (non-aqueous liquid negative electrolyte of the negative compartment) (BTD); • 4,7-di[2-(propyloxycarbonylethyloxy)phenyl]-benzothiadiazole [compound (2) obtained in Example 7] (5×10^−3 M) and tetrabutylammonium tetrafluoroborate (TBABF4) (Aldrich) (0.1 M) in propylene carbonate (Aldrich) (non-aqueous liquid negative electrolyte of the negative compartment) [BTD (2)]; • 4,7-di[2-methoxycarbonylethyloxy)phenyl]-benzothiadiazole [compound (3) obtained in Example 1] (5×10^−3 M) and tetrabutylammonium tetrafluoroborate (TBABF4) (Aldrich) (0.1 M) in acetonitrile (Aldrich) (non-aqueous liquid negative electrolyte of the negative compartment) [BTD (3)]; • 4,7-di[2-(methoxycarbonylethyloxy)phenyl]-benzothiadiazole [compound (3) obtained in Example 1] (5×10^−3 M) and tetrabutylammonium tetrafluoroborate (TBABF4) (Aldrich) (0.1 M) in propylene carbonate (Aldrich) (non-aqueous liquid negative electrolyte of the negative compartment) [BTD (3)]; • 4,7-di[2-(2-(2-methoxyethoxy)ethoxy)phenyl]-benzothiadiazole [compound (4) obtained in Example 3] (5×10^−3 M) and tetrabutylammonium tetrafluoroborate (TBABF4) (Aldrich) (0.1 M) in acetonitrile (Aldrich) (non-aqueous liquid negative electrolyte of the negative compartment) [BTD (4)]; • 4,7-di[2-(2-(2-methoxyethoxy)ethoxy)phenyl]-benzothiadiazole [compound (4) obtained in Example 3] (5×10^−3 M) and tetrabutylammonium tetrafluoroborate (TBABF4) (Aldrich) (0.1 M) in propylene carbonate (Aldrich) (non-aqueous liquid negative electrolyte of the negative compartment) [BTD (4)]; • 4,7-di[2,6-di(propyloxycarbonylethyloxy)phenyl]-benzothiadiazole [compound (5) obtained in Example 4] (5×10^−3 M) and tetrabutylammonium tetrafluoroborate (TBABF4) (Aldrich) (0.1 M) in acetonitrile (Aldrich) (non-aqueous liquid negative electrolyte of the negative compartment) [BTD (5)]; • 4,7-di[2,6-di(propyloxycarbonylethyloxy)phenyl]-benzothiadiazole [compound (5) obtained in Example 4] (5×10^−3 M) and tetrabutylammonium tetrafluoroborate (TBABF4) (Aldrich) (0.1 M) in propylene carbonate (Aldrich) (non-aqueous liquid negative electrolyte of the negative compartment) [BTD (5)]; • 4,7-di[2,5-di(propyloxycarbonylethyloxy)phenyl]-benzothiadiazole [compound (6) obtained in Example 5] (5×10^−3 M) and tetrabutylammonium tetrafluoroborate (TBABF4) (Aldrich) (0.1 M) in acetonitrile (Aldrich) (non-aqueous liquid negative electrolyte of the negative compartment) [BTD (6)]; • 4,7-di[2,5-di(propyloxycarbonylethyloxy)phenyl]-benzothiadiazole [compound (6) obtained in Example 5] […]

[3] = Non-aqueous redox flow battery (RFB) charge/discharge tests
Description: Charge-discharge tests were carried out using an electrochemical cell with a Teflon® membrane (DuPont), having a surface area equal to approximately 0.8 cm^2, placed between two platinum electrodes (Methrohm) having a surface area equal to approximately 0.07 cm^2. The electrochemical cell was then assembled and sealed in a container containing argon (Ar).
For the purpose, use was made of solutions containing: • 4,7-di[2-(propyloxycarbonylethyloxy)phenyl]-benzothiadiazole [Compound (2) obtained in Example 7]: (1×10^−3 M) and tetrabutylammonium tetrafluoroborate (TBABF4) (Aldrich) (0.1 M) in acetonitrile (Aldrich) (non-aqueous liquid negative electrolyte of the negative compartment), degassed with argon (Ar) and subjected to electrolysis in order to obtain benzothiadiazole in reduced form [(BTD (2)·^−)]; • tetrakisacetonitrile copper(I) tetrafluoroborate [Cu(NCCH3)4·BF4] (1×10^−3 M) and tetrabutylammonium tetrafluoroborate (TBABF4) (Aldrich) (0.1 M) in acetonitrile (Aldrich) (non-aqueous liquid positive electrolyte of the positive compartment) (Cu triflate), degassed with argon (Ar).
6 ml of the above solutions were introduced into the respective compartments.
The test was carried out using a potentiostat/galvanostat Autolab PGSTAT 128N (Metrohom) at room temperature (25° C.).
Charge and discharge curves were carried out to assess the performance of the electrolytes in the cell. […]

With `CCOC(=O)CCCOc1ccccc1-c1ccc(-c2ccccc2OCCCC(=O)OCC)c2nsnc12` [Compound (2)] the “stability over 150 successive redox cycles” value [1] was “the cycles are superimposable”, the “E°′ ACN (V vs Fc/Fc^+)” value [2] was −1.91 V vs Fc/Fc^+ and the “E°′ PC (V vs Fc/Fc^+)” value [2] was −1.84 V vs Fc/Fc^+. For the same molecule, the “potential difference (E°) in open circuit” value ([2]; solution in acetonitrile, E°=(E°1)−(E°2) against Cu triflate (0.62 V)) was 2.53 V and the “stability during charge/discharge (oxidation-reduction cycles)” value [3] was “good stability during oxidation-reduction cycles”.
For `CCOC(=O)COc1ccccc1-c1ccc(-c2ccccc2OCC(=O)OCC)c2nsnc12` [Compound (3)], the “E°′ ACN (V vs Fc/Fc^+)” value [2] was −1.86 V vs Fc/Fc^+ and the “E°′ PC (V vs Fc/Fc^+)” value [2] was −1.82 V vs Fc/Fc^+.
For `COCCOCCOc1ccccc1-c1ccc(-c2ccccc2OCCOCCOC)c2nsnc12` [Compound (4), 4,7-di[2-(2-(2-methoxyethoxy)ethoxy)phenyl]-benzothiadiazole], the “E°′ ACN (V vs Fc/Fc^+)” value [2] was −1.90 V vs Fc/Fc^+ and the “E°′ PC (V vs Fc/Fc^+)” value [2] was −1.85 V vs Fc/Fc^+.
In the case of `CCOC(=O)CCCOc1cccc(OCCCC(=O)OCC)c1-c1ccc(-c2c(OCCCC(=O)OCC)cccc2OCCCC(=O)OCC)c2nsnc12` [Compound (5)], the “E°′ ACN (V vs Fc/Fc^+)” value [2] is reported as −2.00 V vs Fc/Fc^+ and the “E°′ PC (V vs Fc/Fc^+)” value [2] is reported as −1.95 V vs Fc/Fc^+.
With `CCOC(=O)CCCOc1ccc(OCCCC(=O)OCC)c(-c2ccc(-c3cc(OCCCC(=O)OCC)ccc3OCCCC(=O)OCC)c3nsnc23)c1` [Compound (6)] the “E°′ ACN (V vs Fc/Fc^+)” value [2] was −1.88 V vs Fc/Fc^+ and the “E°′ PC (V vs Fc/Fc^+)” value [2] was −1.83 V vs Fc/Fc^+.
For `CCOC(=O)CCCOc1ccc(-c2ccc(-c3ccc(OCCCC(=O)OCC)cc3OCCCC(=O)OCC)c3nsnc23)c(OCCCC(=O)OCC)c1` [Compound (7)], the “E°′ ACN (V vs Fc/Fc^+)” value [2] was −1.93 V vs Fc/Fc^+ and the “E°′ PC (V vs Fc/Fc^+)” value [2] was −1.88 V vs Fc/Fc^+.
In the case of `O=S(=O)([O-])C(F)(F)F.O=S(=O)([O-])C(F)(F)F.[Cu+2]` [Cu triflate, copper(II) trifluoromethanesulphonate, reference compound], the “E°′ ACN (V vs Fc/Fc^+)” value [2] is reported as 0.62 V vs Fc/Fc^+ and the “E°′ PC (V vs Fc/Fc^+)” value [2] is reported as 0.43 V vs Fc/Fc^+.
For `CC#N.CC#N.CC#N.CC#N.F[B-](F)(F)F.[Cu+]` [Cu, tetrakisacetonitrile copper(I) tetrafluoroborate, reference compound], the “stability during charge/discharge (oxidation-reduction cycles)” value ([3]; 1×10^−3 M in acetonitrile, 0.1 M TBABF4, Teflon membrane, charge 2.5 V, discharge 0.5 V, 240 seconds each, 25° C.) was “good stability during oxidation-reduction cycles”.

From patent publication US20240120519A1, “NON-AQUEOUS REDOX FLOW BATTERIES” (ENI S.P.A., priority 2020, published 2024)
